From patent EP4682144A1, “SOLID FORM OF PYRROLIDONE DERIVATIVE AS GLUCOKINASE ACTIVATOR” (Hua Medicine (Shanghai) Ltd., priority 2023, dated 2024)
≈ marks a conversion by molar mass, not a printed value.

Key:
[1] = Simulated metabolic test in human intestine S9; format: in vitro ADME
Protocol: Preparation of phosphate buffer (PB): 73.21 g of K2HPO4·3H2O (AR grade) and 10.78 g of KH2PO4 (AR grade) were dissolved in ultra-pure water to obtain a final volume of 4000 mL and a final concentration of 100 mM. The pH of the final test solution was adjusted to 7.40±0.10 with H3PO4/KOH.
An Apricot automation workstation was used to add 50 µL/well of HIS9 solution to the corresponding wells of all reaction plates (blank, T0, T5, T15, T30, T45, T60).
An Apricot automation workstation was used to add 48 µL/well of PB to the corresponding wells of every reaction plate (blank, T0, T5, T15, T30, T45, T60) to start the reaction.
The reaction plates were incubated at 37 °C, and timer was started. An Apricot automation workstation was used to add 300 µL/well of stop solution (cold acetonitrile containing 200 ng/mL tolbutamide (internal standard)) to the corresponding wells of each reaction plate at the appropriate end time point to stop the reaction.
Each plate was sealed and shaken for 10 minutes. Each plate was centrifuged at 4000 rpm and 4 °C for 20 minutes. After centrifugation, 100 µL of supernatant was transferred from each reaction plate to the corresponding analysis plate, and mixed well with 300 µL of ultra-pure water.

[2] = Pharmacokinetic study in rats (IV and PO); format: in vivo, SD male rats; conditions: rats, intravenous injection
Protocol: Each group was divided into 2 subgroups (intravenous bolus group (IV) and gavage group (PO)).
Whole blood samples (about 0.2 mL per time point) were collected at pre-dose (0), 0.083, 0.25, 0.5, 1, 2, 4, 8, 12, and 24 hours post-dose by jugular vein puncture. All the blood samples were immediately transferred into labeled pre-chilled commercial microcentrifuge tubes containing 4 µL of 0.5M K2-EDTA and 10 µL of cocktail stabilizer. Samples were placed on wet ice until centrifugation (within 30 min). Plasma samples were then prepared by centrifuging the blood samples at approximately 4 °C, 3200xg for 10 minutes. Supernatant plasma was pipetted, then quickly frozen over dry ice, and then kept at -60 °C or lower temperature until LC-MS/MS analysis.
The plasma concentrations were subjected to a non-compartmental pharmacokinetic analysis by using the WinNonlin™ software program (version 6.3).

C57BL/6J mice [3] = experiment: Oral glucose tolerance test (OGTT), glucose-lowering effect; format: in vivo; conditions: for blood glucose values after glucose administration: compound A-49.1 mg/kg group, 60 min, and 120 min
Protocol: (§1) There were 7 groups of mice, with 8 mice in each group. […] Oral glucose tolerance test (OGTT) was performed 1 hour after administration. The blood glucose level in mice was tested before administration (-60 min), before sugar administration (0 min), and at 15 min, 30 min, 60 min, and 120 min after sugar administration. In addition, 40 µl of blood was collected from the tail tip before sugar administration (0 min) and at 15 min after sugar administration to collect the plasma for an insulin level test.
(§2) All data was transferred into an Excel document. The blood glucose results were expressed in mg/dL and expressed as MEAN ± SEM. Differences between multiple groups were analyzed using Dunnett's method in one-way analysis of variance (ANOVA) or two-way analysis of variance (ANOVA) with Graphpad Prism 8 software for comparison, and the differences were considered statistically significant when the P value was less than 0.05.

C57BL/6J mice [4] = experiment: Plasma insulin level test during OGTT; format: in vivo
Protocol: as §1, §2

[5] = Preliminary solubility test in solvents at room temperature; format: physicochemical; conditions: for solubility: thermodynamic from solid
Protocol: Table 10 Solubility range of the starting material sample at room temperature
The solubility range in the corresponding solvent was calculated based on the mass of the sample and the volume of the added solvent, as shown in Table 28. The data were used as a base to guide the selection of solvent in screening tests. Table 28 Preliminary solubility of crystal form A of the free state at room temperature
The solubility range in the corresponding solvent was calculated based on the mass of the sample and the volume of the added solvent, as shown in Table 35. The data were used as a base to guide the selection of solvent in the screening tests.

[6] = Caco-2 bi-directional permeability test; conditions: human; for recovery at 2 h, 2 µM: Compound A concentration 2.00 µM; for recovery at 2 h, 10 µM: Compound A concentration 10.0 µM
Protocol: (§3) Caco-2 cell culture: Caco-2 cells (purchased from American Type Culture Collection, ATCC) were inoculated on polyethylene film (PET) of a 96-well culture plate at a concentration of 1x10^5 cells/cm^2. The culture medium was replaced every 4 days until cell confluency to form cell monolayer on day 21 or 28.
(§4) Transport test: Transport buffer used in the test was Hanks' Balanced Salt Solution (HBSS) containing 10 mM 2-[4-(2-hydroxyethyl)-1-piperazinyl] ethanesulfonic acid (HEPES) with a pH of 7.40 ± 0.05. In vitro permeability studies were performed with Nadolol, Metoprolol and Digoxin as model permeants. […] Digoxin was assessed bi-directionally with a test concentration of 10.0µM (n=2). Nadolol and Metoprolol were assessed unidirectionally both with a test concentration of 2.00 µM (n=2). The final concentration of DMSO in the incubation system was adjusted to <1%.

Caco-2 cells = experiment: Caco-2 bi-directional permeability test; conditions: Caco-2
Protocol: as §3, §4

[7] = Caco-2, pH 7.4, Average recovery rate (%) A→B
[8] = Caco-2, pH 7.4, Average recovery rate (%) B→A

**Q.** Which results are given for `CC(C)C[C@@H](C(=O)Nc1ccn(C[C@@H](O)COC(=O)c2cccnc2)n1)N1CC(Oc2ccccc2Cl)=CC1=O` [Compound A, (R)-3-(3-((S)-2-(4-(2-chlorophenoxy)-2-oxo-2,5-dihydro-1H-pyrrol-1-yl)-4-methylpentanamido)-1H-pyrazol-1-yl)-2-hydroxypropyl nicotinate]?
**A.** time until completely metabolized and converted into the parent drug HMS5552 [1]: ≤ 5 min; metabolism in rats by intravenous injection [2]: metabolized very rapidly; glucose-lowering effect in mice (C57BL/6J mice [3]; C57BL/6J mice, OGTT): good glucose-lowering effect; blood glucose level at 0 min (pre-glucose) (C57BL/6J mice [3]; C57BL/6J mice, oral, 1 hour after administration, versus vehicle control group, dose-response relationship): generally lower than that of the vehicle control group; blood glucose values after glucose administration (C57BL/6J mice [3]; at 15 min, 30 min, versus vehicle control group): significantly lower than that of the vehicle control group; blood glucose values after glucose administration (C57BL/6J mice [3]; at 30 min, versus HMS5552-40mg/kg group): significantly lower than that of the HMS5552-40mg/kg group; AUC0-120min of OGTT blood glucose (C57BL/6J mice [3]; medium and high dose groups of compound A versus corresponding dose groups of HMS5552): significantly lower than those of the corresponding dose groups of HMS5552; insulin level at 0 min (C57BL/6J mice [4]; compound A high-dose group): significantly higher than that of the vehicle control group and the HMS5552 high-dose group; insulin level at 15 min (C57BL/6J mice [4]; compound A-18.4mg/kg group versus corresponding dose group of HMS5552): significantly higher than that of the corresponding dose group of HMS5552; insulin level at 15 min (C57BL/6J mice [4]; compound A-18.4mg/kg group versus vehicle control group): significantly higher than that of the vehicle control group; insulin level at 15 min (C57BL/6J mice [4]; compound A-49.1mg/kg group versus vehicle control group): significantly higher than that of the vehicle control group; Solubility (mg/mL) ([5]; 1,4-Dioxane, room temperature): S>42.0 mg/mL; Solubility (mg/mL) ([5]; 2-MeTHF, room temperature): S>42.0 mg/mL; solubility ([5]; 2-MeTHF/n-Heptane (1:4) v/v, 25 °C, organic solvent or mixture, 2-MeTHF/n-Heptane (1:4) v/v, room temperature): < 1000 µg/mL; Solubility (mg/mL) ([5]; ACN, room temperature): S>50.0 mg/mL; solubility ([5]; Cyclohexane, 25 °C, organic solvent or mixture, room temperature): < 1100 µg/mL; solubility ([5]; DCM, 25 °C, organic solvent or mixture, room temperature): > 44000 µg/mL; solubility ([5]; DMAc, 25 °C, organic solvent or mixture, room temperature): > 42000 µg/mL; solubility ([5]; DMSO, 25 °C, organic solvent or mixture, room temperature): > 44000 µg/mL; Solubility (mg/mL) ([5]; EtOAc, room temperature): S>48.0 mg/mL; solubility ([5]; EtOAc/n-heptane (1:4 v/v), 25 °C, organic solvent or mixture, EtOAc/n-Heptane (1:4) v/v, room temperature): < 1100 µg/mL; Solubility (mg/mL) ([5]; EtOH, room temperature): S>46.0 mg/mL; solubility ([5]; EtOH/H2O (1:2) v/v, 25 °C, aqueous with cosolvent or surfactant or cyclodextrin, EtOH/H2O (1:2) v/v, room temperature): 2100 to 5300 µg/mL (≈ 3.7 to 9.33 mM); solubility ([5]; H2O, 25 °C, water, room temperature): < 1100 µg/mL; Solubility (mg/mL) ([5]; IPA, room temperature): S>38.0 mg/mL; Solubility (mg/mL) ([5]; IPAc, room temperature): S>44.0 mg/mL; Solubility (mg/mL) ([5]; MIBK, room temperature): S>40.0 mg/mL; solubility ([5]; MeOH, 25 °C, organic solvent or mixture, room temperature (25±3 °C)): > 50000 µg/mL; solubility ([5]; NMP, 25 °C, organic solvent or mixture, room temperature): > 44000 µg/mL; solubility ([5]; THF, 25 °C, organic solvent or mixture, room temperature): > 40000 µg/mL; solubility ([5]; Toluene/n-Heptane (1:1) v/v, 25 °C, organic solvent or mixture, Toluene/n-Heptane (1:1) v/v, room temperature): 1000 to 2000 µg/mL (≈ 1.76 to 3.52 mM); solubility ([5]; acetone, 25 °C, organic solvent or mixture, room temperature): > 46000 µg/mL; solubility ([5]; acetone/H2O (1:2 v/v), 25 °C, aqueous with cosolvent or surfactant or cyclodextrin, Acetone/H2O (1:2) v/v, room temperature): 5300 to 10500 µg/mL (≈ 9.33 to 18.5 mM); solubility ([5]; chcl3, 25 °C, organic solvent or mixture, CHCl3, room temperature): > 48000 µg/mL; solubility ([5]; n-Heptane, 25 °C, organic solvent or mixture, room temperature): < 1100 µg/mL; recovery at 2 h, 2 µM [6, 7]: 52.9%; recovery at 2 h, 10 µM [6, 7]: 37.5%; recovery at 2 h, 2 µM [6, 8]: 87.1%; recovery at 2 h, 10 µM [6, 8]: 81.6%; recovery at 2 h, 30 µM ([6]; Caco-2, pH 7.4, Average recovery rate (%) B→A, Compound A concentration 30.0 µM): 82.2%; permeability from A side to B side (Caco-2 cells): low; permeability from B side to A side (Caco-2 cells): high
